Measurements from the supplement of paper PMC10307832.

Key:
Assay in all cases: relative viability (nuclei count vs DMSO), 5 days (fraction); higher = more cells survive
A-427 = system: A-427
Summary of the method: (§1)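 Cells from lung cancer lines were seeded into 1536-well plates and, one day later, dosed by pin tool. Treatments were either a single drug or a fixed dose of an anchor drug with five library-drug doses (not always all listed) in √10 steps. After 5 days, nuclei were stained in a one-step fixation (final 0.05% Triton X-100, 1% formaldehyde, 1 ug/ml Hoechst) and counted on 4× images, and relative viability is the treated-to-vehicle nuclei ratio, as the median of duplicate plates.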

ABC-1 = system: ABC-1
Summary of the method: as §1

BEN = system: BEN
Summary of the method: as §1

CAL-12T = system: CAL-12T
Summary of the method: as §1

HARA = system: HARA
Summary of the method: as §1

LCLC-103H = system: LCLC-103H
Summary of the method: as §1

LOU-NH91 = system: LOU-NH91
Summary of the method: as §1

NCI-H1651 = system: NCI-H1651
Summary of the method: as §1

NCI-H1666 = system: NCI-H1666
Summary of the method: as §1

NCI-H1734 = system: NCI-H1734
Summary of the method: as §1

NCI-H1944 = system: NCI-H1944
Summary of the method: as §1

NCI-H1975 = system: NCI-H1975
Summary of the method: as §1

For `Cc1cn(-c2cc(NC(=O)c3ccc(C)c(Nc4nccc(-c5cccnc5)n4)c3)cc(C(F)(F)F)c2)cn1` [Nilotinib] + Cc1nc(Nc2ncc(C(=O)Nc3c(C)cccc3Cl)s2)cc(N2CCN(CCO)CC2)n1 [Dasatinib] (partner 0.075 µM), the relative viability (A-427; first compound 0.001 µM) was 0.663, the relative viability (A-427; first compound 0.003162 µM) was 0.728 and the relative viability (A-427; first compound 0.01 µM) was 0.72. The relative viability (A-427; first compound 0.03162 µM) was 0.54, the relative viability (A-427; first compound 0.1 µM) was 0.1 and the relative viability (ABC-1; first compound 0.001 µM) was 0.557. The relative viability (ABC-1; first compound 0.003162 µM) was 0.637, the relative viability (ABC-1; first compound 0.01 µM) was 0.643 and the relative viability (ABC-1; first compound 0.03162 µM) was 0.554. It also gave a relative viability (ABC-1; first compound 0.1 µM) of 0.24, a relative viability (BEN; first compound 0.001 µM) of 0.336 and a relative viability (BEN; first compound 0.003162 µM) of 0.338. It also gave a relative viability (BEN; first compound 0.01 µM) of 0.278, a relative viability (BEN; first compound 0.03162 µM) of 0.322 and a relative viability (BEN; first compound 0.1 µM) of 0.221. It also gave a relative viability (CAL-12T; first compound 0.001 µM) of 0.376, a relative viability (CAL-12T; first compound 0.003162 µM) of 0.387 and a relative viability (CAL-12T; first compound 0.01 µM) of 0.456. For the same compound, the relative viability (CAL-12T; first compound 0.03162 µM) was 0.178, the relative viability (CAL-12T; first compound 0.1 µM) was 0.137 and the relative viability (HARA; first compound 0.001 µM) was 0.325. For the same compound, the relative viability (HARA; first compound 0.003162 µM) was 0.345, the relative viability (HARA; first compound 0.01 µM) was 0.289 and the relative viability (HARA; first compound 0.03162 µM) was 0.178. It also gave a relative viability (HARA; first compound 0.1 µM) of 0.112, a relative viability (LCLC-103H; first compound 0.001 µM) of 0.414 and a relative viability (LCLC-103H; first compound 0.003162 µM) of 0.414. For the same compound, the relative viability (LCLC-103H; first compound 0.01 µM) was 0.51, the relative viability (LCLC-103H; first compound 0.03162 µM) was 0.338 and the relative viability (LCLC-103H; first compound 0.1 µM) was 0.434. For the same compound, the relative viability (LOU-NH91; first compound 0.001 µM) was 0.524, the relative viability (LOU-NH91; first compound 0.003162 µM) was 0.619 and the relative viability (LOU-NH91; first compound 0.01 µM) was 0.569. For the same compound, the relative viability (LOU-NH91; first compound 0.03162 µM) was 0.489, the relative viability (LOU-NH91; first compound 0.1 µM) was 0.583 and the relative viability (NCI-H1651; first compound 0.001 µM) was 0.426. The relative viability (NCI-H1651; first compound 0.003162 µM) was 0.387, the relative viability (NCI-H1651; first compound 0.01 µM) was 0.42 and the relative viability (NCI-H1651; first compound 0.1 µM) was 0.208. The relative viability (NCI-H1666; first compound 0.001 µM) was 0.783, the relative viability (NCI-H1666; first compound 0.003162 µM) was 0.886 and the relative viability (NCI-H1666; first compound 0.01 µM) was 0.797. For the same compound, the relative viability (NCI-H1666; first compound 0.03162 µM) was 0.719, the relative viability (NCI-H1666; first compound 0.1 µM) was 0.778 and the relative viability (NCI-H1734; first compound 0.001 µM) was 0.355. It also gave a relative viability (NCI-H1734; first compound 0.003162 µM) of 0.477, a relative viability (NCI-H1734; first compound 0.01 µM) of 0.506 and a relative viability (NCI-H1734; first compound 0.03162 µM) of 0.345. For the same compound, the relative viability (NCI-H1734; first compound 0.1 µM) was 0.304, the relative viability (NCI-H1944; first compound 0.001 µM) was 0.228 and the relative viability (NCI-H1944; first compound 0.003162 µM) was 0.206. It also gave a relative viability (NCI-H1944; first compound 0.01 µM) of 0.217, a relative viability (NCI-H1944; first compound 0.03162 µM) of 0.241 and a relative viability (NCI-H1975; first compound 0.001 µM) of 0.312. It also gave a relative viability (NCI-H1975; first compound 0.003162 µM) of 0.39 and a relative viability (NCI-H1975; first compound 0.01 µM) of 0.309.
